Measured values from the NIST ThermoML archive (doi:10.1021/je400733m).
± gives the expanded uncertainty stated by the source.

Details: for vapor or sublimation pressure: Liquid; for mass density: Gas, isochoric method

F [hydrogen fluoride]
Details	vapor or sublimation pressure [kPa]
293.12 K	102.1 ± 4
303.13 K	145.3 ± 4
313.16 K	202.1 ± 4.1
323.08 K	274.7 ± 4.2
333.13 K	368.7 ± 4.4
343.1 K	487.1 ± 4.7
353.14 K	636.4 ± 5.1
363.17 K	822.2 ± 5.7
373.14 K	1048.5 ± 6.4
383.21 K	1327.1 ± 7.3
393.11 K	1659.3 ± 8.4
403.1 K	2060.2 ± 9.7
413.14 K	2541.3 ± 11
423.14 K	3111.5 ± 13
433.06 K	3778.1 ± 15
443.01 K	4566 ± 18
454.15 K	5611.6 ± 19

Details	mass density [kg/m3]
293.15 K, 27.7 kPa	0.232 ± 0.08
293.15 K, 29 kPa	0.245 ± 0.082
293.15 K, 31.8 kPa	0.282 ± 0.086
293.15 K, 34.5 kPa	0.32 ± 0.089
293.15 K, 37.2 kPa	0.36 ± 0.082
293.15 K, 41.5 kPa	0.438 ± 0.1
293.15 K, 55.5 kPa	0.802 ± 0.13
293.15 K, 69.3 kPa	1.311 ± 0.16
293.15 K, 83.3 kPa	1.954 ± 0.18
293.15 K, 98.6 kPa	2.86 ± 0.2
303.15 K, 26.4 kPa	0.212 ± 0.043
303.15 K, 29.4 kPa	0.239 ± 0.046
303.15 K, 34.2 kPa	0.283 ± 0.045
303.15 K, 38 kPa	0.32 ± 0.053
303.15 K, 41.5 kPa	0.356 ± 0.052
303.15 K, 45.1 kPa	0.395 ± 0.052
303.15 K, 52.7 kPa	0.491 ± 0.063
303.15 K, 64.8 kPa	0.694 ± 0.082
303.15 K, 78 kPa	0.999 ± 0.1
303.15 K, 90 kPa	1.359 ± 0.13
303.15 K, 102.6 kPa	1.818 ± 0.15
303.15 K, 114.8 kPa	2.327 ± 0.18
303.15 K, 126.7 kPa	2.883 ± 0.19
303.15 K, 141.6 kPa	3.802 ± 0.22
313.15 K, 29.3 kPa	0.227 ± 0.037
313.15 K, 35.9 kPa	0.28 ± 0.038
313.15 K, 36.4 kPa	0.28 ± 0.038
313.15 K, 39.6 kPa	0.307 ± 0.039
313.15 K, 41.4 kPa	0.326 ± 0.039
313.15 K, 42.5 kPa	0.331 ± 0.039
313.15 K, 48.3 kPa	0.385 ± 0.04
313.15 K, 53.3 kPa	0.426 ± 0.041
313.15 K, 55.1 kPa	0.447 ± 0.041
313.15 K, 57 kPa	0.461 ± 0.044
313.15 K, 62.1 kPa	0.51 ± 0.045
313.15 K, 68.9 kPa	0.59 ± 0.047
313.15 K, 74 kPa	0.644 ± 0.049
313.15 K, 82.8 kPa	0.767 ± 0.063
313.15 K, 90.7 kPa	0.883 ± 0.069
313.15 K, 96.6 kPa	0.992 ± 0.082
313.15 K, 109.1 kPa	1.246 ± 0.089
313.15 K, 110.3 kPa	1.285 ± 0.1
313.15 K, 124.3 kPa	1.653 ± 0.11
313.15 K, 129.3 kPa	1.787 ± 0.11
313.15 K, 138 kPa	2.078 ± 0.14
313.15 K, 148 kPa	2.417 ± 0.14
313.15 K, 152 kPa	2.579 ± 0.15
313.15 K, 165.7 kPa	3.118 ± 0.14
313.15 K, 165.8 kPa	3.133 ± 0.14
313.15 K, 180.3 kPa	3.777 ± 0.16
313.15 K, 180.5 kPa	3.797 ± 0.16
323.15 K, 55 kPa	0.422 ± 0.039
323.15 K, 100.9 kPa	0.842 ± 0.043
323.15 K, 117.9 kPa	1.05 ± 0.062
323.15 K, 156.9 kPa	1.731 ± 0.082
323.15 K, 181.4 kPa	2.343 ± 0.11
323.15 K, 204.5 kPa	3.061 ± 0.12
323.15 K, 228.7 kPa	3.949 ± 0.13
333.15 K, 29.2 kPa	0.218 ± 0.035
333.15 K, 99.9 kPa	0.759 ± 0.033
333.15 K, 112.6 kPa	0.863 ± 0.041
333.15 K, 142.2 kPa	1.147 ± 0.048
333.15 K, 163.7 kPa	1.386 ± 0.042
333.15 K, 180 kPa	1.61 ± 0.035
333.15 K, 199.2 kPa	1.904 ± 0.085
333.15 K, 222.8 kPa	2.36 ± 0.1
333.15 K, 234.8 kPa	2.612 ± 0.093
333.15 K, 246.2 kPa	2.902 ± 0.088
333.15 K, 270.8 kPa	3.552 ± 0.12
333.15 K, 276.4 kPa	3.753 ± 0.12
333.15 K, 305.8 kPa	4.693 ± 0.14
333.15 K, 317.3 kPa	5.162 ± 0.16
333.15 K, 341.5 kPa	6.088 ± 0.15
333.15 K, 343.5 kPa	6.229 ± 0.16
343.15 K, 24.6 kPa	0.179 ± 0.034
343.15 K, 67.3 kPa	0.488 ± 0.035
343.15 K, 141.7 kPa	1.05 ± 0.04
343.15 K, 244.7 kPa	2.094 ± 0.051
343.15 K, 289.6 kPa	2.791 ± 0.071
343.15 K, 340.6 kPa	3.856 ± 0.097
343.15 K, 375.4 kPa	4.777 ± 0.12
343.15 K, 414.8 kPa	6.034 ± 0.14
343.15 K, 455.3 kPa	7.553 ± 0.15
353.15 K, 50.5 kPa	0.352 ± 0.034
353.15 K, 118.5 kPa	0.833 ± 0.034
353.15 K, 189 kPa	1.359 ± 0.037
353.15 K, 279.3 kPa	2.154 ± 0.043
353.15 K, 334.2 kPa	2.782 ± 0.057
353.15 K, 391.1 kPa	3.617 ± 0.063
353.15 K, 450.1 kPa	4.75 ± 0.091
353.15 K, 509 kPa	6.216 ± 0.12
353.15 K, 583.5 kPa	8.604 ± 0.14
363.15 K, 78.7 kPa	0.523 ± 0.033
363.15 K, 151.2 kPa	1.024 ± 0.034
363.15 K, 268.6 kPa	1.886 ± 0.036
363.15 K, 349.7 kPa	2.574 ± 0.042
363.15 K, 435.2 kPa	3.463 ± 0.053
363.15 K, 519.5 kPa	4.617 ± 0.071
363.15 K, 610.3 kPa	6.318 ± 0.1
363.15 K, 704.7 kPa	8.73 ± 0.12
363.15 K, 792.4 kPa	11.696 ± 0.15
373.15 K, 59.5 kPa	0.389 ± 0.032
373.15 K, 135.1 kPa	0.89 ± 0.033
373.15 K, 249.7 kPa	1.674 ± 0.034
373.15 K, 360.6 kPa	2.495 ± 0.036
373.15 K, 444.9 kPa	3.191 ± 0.04
373.15 K, 555.7 kPa	4.277 ± 0.047
373.15 K, 661.8 kPa	5.611 ± 0.07
373.15 K, 768.8 kPa	7.405 ± 0.098
373.15 K, 872.6 kPa	9.733 ± 0.12
373.15 K, 971.7 kPa	12.608 ± 0.13
383.15 K, 109.3 kPa	0.69 ± 0.032
383.15 K, 256.8 kPa	1.656 ± 0.033
383.15 K, 388.4 kPa	2.569 ± 0.034
383.15 K, 518.3 kPa	3.557 ± 0.038
383.15 K, 666.4 kPa	4.865 ± 0.044
383.15 K, 794.6 kPa	6.263 ± 0.057
383.15 K, 928.9 kPa	8.187 ± 0.074
383.15 K, 1067 kPa	10.825 ± 0.097
383.15 K, 1201 kPa	14.245 ± 0.12
393.15 K, 172.3 kPa	1.108 ± 0.032
393.15 K, 337.7 kPa	2.178 ± 0.032
393.15 K, 505.5 kPa	3.335 ± 0.034
393.15 K, 674.9 kPa	4.611 ± 0.037
393.15 K, 840.7 kPa	6.052 ± 0.042
393.15 K, 1013 kPa	7.764 ± 0.062
393.15 K, 1175 kPa	10.132 ± 0.08
393.15 K, 1344 kPa	13.239 ± 0.096
393.15 K, 1498 kPa	17.048 ± 0.13
403.15 K, 240.6 kPa	1.492 ± 0.032
403.15 K, 449.3 kPa	2.829 ± 0.032
403.15 K, 652.2 kPa	4.216 ± 0.034
403.15 K, 862.3 kPa	5.791 ± 0.038
403.15 K, 1069 kPa	7.588 ± 0.044
403.15 K, 1278 kPa	9.802 ± 0.055
403.15 K, 1491 kPa	12.74 ± 0.072
403.15 K, 1709 kPa	16.83 ± 0.12
403.15 K, 1897 kPa	21.668 ± 0.16
413.15 K, 222.3 kPa	1.32 ± 0.031
413.15 K, 371.4 kPa	2.232 ± 0.031
413.15 K, 508.9 kPa	3.095 ± 0.031
413.15 K, 683.2 kPa	4.229 ± 0.033
413.15 K, 883.6 kPa	5.621 ± 0.034
413.15 K, 1059 kPa	6.93 ± 0.037
413.15 K, 1234 kPa	8.38 ± 0.044
413.15 K, 1399 kPa	9.914 ± 0.051
413.15 K, 1557 kPa	11.607 ± 0.049
413.15 K, 1728 kPa	13.746 ± 0.074
413.15 K, 2034 kPa	18.831 ± 0.082
413.15 K, 2223 kPa	23.108 ± 0.12
433.15 K, 309.8 kPa	1.785 ± 0.03
433.15 K, 698.6 kPa	4.1 ± 0.031
433.15 K, 1068.9 kPa	6.452 ± 0.033
433.15 K, 1452 kPa	9.113 ± 0.036
433.15 K, 1847 kPa	12.286 ± 0.042
433.15 K, 2258 kPa	16.303 ± 0.056
433.15 K, 2635 kPa	21.034 ± 0.074
433.15 K, 3001 kPa	27.275 ± 0.12
433.15 K, 3365 kPa	36.362 ± 0.16
433.15 K, 3703 kPa	50.976 ± 0.26
453.15 K, 476.5 kPa	2.703 ± 0.03
453.15 K, 1014 kPa	5.793 ± 0.031
453.15 K, 1550 kPa	9.121 ± 0.033
453.15 K, 2081 kPa	12.797 ± 0.037
453.15 K, 2621 kPa	17.077 ± 0.048
453.15 K, 3133 kPa	21.99 ± 0.078
453.15 K, 3651 kPa	28.309 ± 0.22
453.15 K, 4173 kPa	36.974 ± 0.14
453.15 K, 4738 kPa	51.158 ± 0.29
453.15 K, 5189 kPa	73.046 ± 0.31
473.15 K, 398.6 kPa	2.061 ± 0.029
473.15 K, 719.1 kPa	3.785 ± 0.029
473.15 K, 1113 kPa	5.969 ± 0.03
473.15 K, 1557 kPa	8.541 ± 0.031
473.15 K, 1986 kPa	11.159 ± 0.033
473.15 K, 2275 kPa	13.033 ± 0.034
473.15 K, 2590 kPa	15.167 ± 0.038
473.15 K, 2992 kPa	18.107 ± 0.045
473.15 K, 3473 kPa	22.184 ± 0.059
473.15 K, 4349 kPa	30.552 ± 0.089
473.15 K, 4995 kPa	38.609 ± 0.31
473.15 K, 5640 kPa	49.429 ± 0.33
473.15 K, 6393 kPa	68.899 ± 0.21
473.15 K, 7041 kPa	98.187 ± 0.3
